Reference: publication PMC4685510, “A Cell Biologist’s Field Guide to Aurora Kinase Inhibitors” (Frontiers in Oncology, 2015)

Key:
Assay in all cases: biochemical
Format in all cases: biochemical
[1] = target: 363 human kinases (including Aurora A/B/C) (Homo sapiens, UniProt Q14012); conditions: CAMK1a, [ATP] 20 µM; for remaining activity at 0.1 µM: 100 nM; for remaining activity at 0.1 µM / remaining activity at 0.5 µM: read-out: % Enzyme Activity (relative to DMSO controls)
From the text: (§1) However, the Aurora A/B selectivity ratios derived from our in vitro and in vivo data can be compared to prioritize inhibitors.

[2] = target: T1, 363 human kinases (including Aurora A/B/C) (Homo sapiens, UniProt Q13470); conditions: TNK1; for remaining activity at 0.1 µM: 100 nM; for remaining activity at 0.1 µM / remaining activity at 0.5 µM: read-out: % Enzyme Activity (relative to DMSO controls)
T1 sequence (Q13470 1-666): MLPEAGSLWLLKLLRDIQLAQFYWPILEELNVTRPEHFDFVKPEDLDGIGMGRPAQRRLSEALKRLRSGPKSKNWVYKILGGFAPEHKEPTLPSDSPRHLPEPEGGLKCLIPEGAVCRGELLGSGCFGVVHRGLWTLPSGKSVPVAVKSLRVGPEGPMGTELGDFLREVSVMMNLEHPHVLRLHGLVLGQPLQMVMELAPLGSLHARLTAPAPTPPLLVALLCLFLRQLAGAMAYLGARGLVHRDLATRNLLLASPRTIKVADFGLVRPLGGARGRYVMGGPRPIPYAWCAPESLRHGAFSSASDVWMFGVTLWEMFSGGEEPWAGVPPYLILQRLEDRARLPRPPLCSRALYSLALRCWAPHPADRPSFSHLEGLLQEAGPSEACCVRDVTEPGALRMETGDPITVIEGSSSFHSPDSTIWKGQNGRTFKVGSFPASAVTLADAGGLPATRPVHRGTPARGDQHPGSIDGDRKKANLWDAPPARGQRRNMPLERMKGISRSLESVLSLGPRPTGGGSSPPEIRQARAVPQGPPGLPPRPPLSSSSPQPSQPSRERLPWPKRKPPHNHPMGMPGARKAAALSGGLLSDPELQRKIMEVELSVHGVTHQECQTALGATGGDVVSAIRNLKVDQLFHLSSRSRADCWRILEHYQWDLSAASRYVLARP
From the text: as §1

[3] = target: T2, 363 human kinases (including Aurora A/B/C) (Homo sapiens, UniProt O00141); conditions: SGK1; for remaining activity at 0.1 µM: 100 nM; for remaining activity at 0.1 µM / remaining activity at 0.5 µM: read-out: % Enzyme Activity (relative to DMSO controls)
T2 sequence (O00141 1-431): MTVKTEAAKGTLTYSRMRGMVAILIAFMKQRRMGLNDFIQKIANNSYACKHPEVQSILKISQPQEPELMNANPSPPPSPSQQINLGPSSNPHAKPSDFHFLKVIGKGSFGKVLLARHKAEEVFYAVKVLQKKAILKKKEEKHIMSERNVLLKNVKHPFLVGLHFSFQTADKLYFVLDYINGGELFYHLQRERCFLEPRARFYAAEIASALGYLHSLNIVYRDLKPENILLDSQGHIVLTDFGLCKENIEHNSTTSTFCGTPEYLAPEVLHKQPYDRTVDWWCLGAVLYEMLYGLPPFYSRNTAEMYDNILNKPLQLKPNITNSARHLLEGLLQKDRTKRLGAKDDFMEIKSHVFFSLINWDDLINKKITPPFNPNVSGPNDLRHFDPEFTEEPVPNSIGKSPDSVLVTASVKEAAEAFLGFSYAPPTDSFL
From the text: as §1

[4] = target: 363 human kinases (including Aurora A/B/C) (Homo sapiens, UniProt Q9UKE5); conditions: TNIK; for remaining activity at 0.1 µM: 100 nM; for remaining activity at 0.1 µM / remaining activity at 0.5 µM: read-out: % Enzyme Activity (relative to DMSO controls)
Chain of 363 human kinases (including Aurora A/B/C) (Homo sapiens, UniProt Q9UKE5) (Q9UKE5 whole entry): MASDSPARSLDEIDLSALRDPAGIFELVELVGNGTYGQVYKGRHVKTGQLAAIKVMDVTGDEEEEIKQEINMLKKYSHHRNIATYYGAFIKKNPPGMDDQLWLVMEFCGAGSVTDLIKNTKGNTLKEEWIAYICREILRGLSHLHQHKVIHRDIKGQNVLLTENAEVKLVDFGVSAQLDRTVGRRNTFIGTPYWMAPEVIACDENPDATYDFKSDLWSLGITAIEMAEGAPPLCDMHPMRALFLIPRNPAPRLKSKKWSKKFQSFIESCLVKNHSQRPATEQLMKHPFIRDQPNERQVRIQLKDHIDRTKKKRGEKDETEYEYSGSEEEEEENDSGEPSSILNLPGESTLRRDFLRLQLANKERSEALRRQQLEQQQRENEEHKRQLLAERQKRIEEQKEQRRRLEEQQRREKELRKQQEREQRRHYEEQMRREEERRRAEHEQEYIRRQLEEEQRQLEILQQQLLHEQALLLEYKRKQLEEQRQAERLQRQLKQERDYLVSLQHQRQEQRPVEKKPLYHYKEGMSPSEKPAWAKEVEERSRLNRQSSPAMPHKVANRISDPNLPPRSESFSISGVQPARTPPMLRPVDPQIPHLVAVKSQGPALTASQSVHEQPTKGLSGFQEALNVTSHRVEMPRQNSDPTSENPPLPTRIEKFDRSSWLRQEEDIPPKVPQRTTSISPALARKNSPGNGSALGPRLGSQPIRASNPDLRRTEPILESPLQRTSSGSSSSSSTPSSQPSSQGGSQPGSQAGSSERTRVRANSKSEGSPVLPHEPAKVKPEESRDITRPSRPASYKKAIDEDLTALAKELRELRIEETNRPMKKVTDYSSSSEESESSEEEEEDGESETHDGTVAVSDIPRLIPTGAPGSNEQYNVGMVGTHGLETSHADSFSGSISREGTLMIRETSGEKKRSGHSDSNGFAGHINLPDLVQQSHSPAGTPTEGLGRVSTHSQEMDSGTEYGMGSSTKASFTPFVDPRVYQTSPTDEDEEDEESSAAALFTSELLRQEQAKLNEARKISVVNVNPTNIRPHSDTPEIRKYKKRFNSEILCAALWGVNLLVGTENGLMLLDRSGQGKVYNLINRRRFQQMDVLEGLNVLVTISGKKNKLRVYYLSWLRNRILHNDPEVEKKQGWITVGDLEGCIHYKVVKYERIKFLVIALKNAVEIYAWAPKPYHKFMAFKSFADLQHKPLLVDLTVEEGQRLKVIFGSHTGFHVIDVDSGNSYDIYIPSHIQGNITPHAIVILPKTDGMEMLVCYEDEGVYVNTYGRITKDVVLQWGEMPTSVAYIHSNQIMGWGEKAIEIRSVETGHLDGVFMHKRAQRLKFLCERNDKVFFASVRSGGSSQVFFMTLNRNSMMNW
From the text: as §1

[5] = target: T3, 363 human kinases (including Aurora A/B/C) (Homo sapiens, UniProt P10398); conditions: ARAF, [ATP] 15 µM; for remaining activity at 0.1 µM: 100 nM; for remaining activity at 0.1 µM / remaining activity at 0.5 µM: read-out: % Enzyme Activity (relative to DMSO controls)
T3 sequence (P10398 1-606): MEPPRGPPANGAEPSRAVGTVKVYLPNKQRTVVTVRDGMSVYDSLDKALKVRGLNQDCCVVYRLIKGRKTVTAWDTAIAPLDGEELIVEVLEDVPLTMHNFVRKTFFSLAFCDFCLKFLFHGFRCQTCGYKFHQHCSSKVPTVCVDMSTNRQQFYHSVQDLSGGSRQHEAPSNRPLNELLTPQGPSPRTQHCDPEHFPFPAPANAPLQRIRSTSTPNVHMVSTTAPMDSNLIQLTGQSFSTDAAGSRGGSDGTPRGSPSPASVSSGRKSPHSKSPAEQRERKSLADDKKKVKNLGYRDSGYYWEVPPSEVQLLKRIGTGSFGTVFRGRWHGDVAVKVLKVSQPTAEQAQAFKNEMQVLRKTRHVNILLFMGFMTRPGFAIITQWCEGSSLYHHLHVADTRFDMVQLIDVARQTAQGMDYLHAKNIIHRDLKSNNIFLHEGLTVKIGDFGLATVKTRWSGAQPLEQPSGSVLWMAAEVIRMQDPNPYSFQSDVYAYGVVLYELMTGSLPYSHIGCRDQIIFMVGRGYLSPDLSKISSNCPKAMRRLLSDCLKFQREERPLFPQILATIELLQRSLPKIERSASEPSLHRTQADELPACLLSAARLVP
From the text: as §1

[6] = target: 363 human kinases (including Aurora A/B/C) (Homo sapiens, UniProt Q9UM73); conditions: ALK, [ATP] 50 µM; for remaining activity at 0.1 µM: 100 nM; for remaining activity at 0.1 µM / remaining activity at 0.5 µM: read-out: % Enzyme Activity (relative to DMSO controls)
Chain of 363 human kinases (including Aurora A/B/C) (Homo sapiens, UniProt Q9UM73) (Q9UM73 19-1620): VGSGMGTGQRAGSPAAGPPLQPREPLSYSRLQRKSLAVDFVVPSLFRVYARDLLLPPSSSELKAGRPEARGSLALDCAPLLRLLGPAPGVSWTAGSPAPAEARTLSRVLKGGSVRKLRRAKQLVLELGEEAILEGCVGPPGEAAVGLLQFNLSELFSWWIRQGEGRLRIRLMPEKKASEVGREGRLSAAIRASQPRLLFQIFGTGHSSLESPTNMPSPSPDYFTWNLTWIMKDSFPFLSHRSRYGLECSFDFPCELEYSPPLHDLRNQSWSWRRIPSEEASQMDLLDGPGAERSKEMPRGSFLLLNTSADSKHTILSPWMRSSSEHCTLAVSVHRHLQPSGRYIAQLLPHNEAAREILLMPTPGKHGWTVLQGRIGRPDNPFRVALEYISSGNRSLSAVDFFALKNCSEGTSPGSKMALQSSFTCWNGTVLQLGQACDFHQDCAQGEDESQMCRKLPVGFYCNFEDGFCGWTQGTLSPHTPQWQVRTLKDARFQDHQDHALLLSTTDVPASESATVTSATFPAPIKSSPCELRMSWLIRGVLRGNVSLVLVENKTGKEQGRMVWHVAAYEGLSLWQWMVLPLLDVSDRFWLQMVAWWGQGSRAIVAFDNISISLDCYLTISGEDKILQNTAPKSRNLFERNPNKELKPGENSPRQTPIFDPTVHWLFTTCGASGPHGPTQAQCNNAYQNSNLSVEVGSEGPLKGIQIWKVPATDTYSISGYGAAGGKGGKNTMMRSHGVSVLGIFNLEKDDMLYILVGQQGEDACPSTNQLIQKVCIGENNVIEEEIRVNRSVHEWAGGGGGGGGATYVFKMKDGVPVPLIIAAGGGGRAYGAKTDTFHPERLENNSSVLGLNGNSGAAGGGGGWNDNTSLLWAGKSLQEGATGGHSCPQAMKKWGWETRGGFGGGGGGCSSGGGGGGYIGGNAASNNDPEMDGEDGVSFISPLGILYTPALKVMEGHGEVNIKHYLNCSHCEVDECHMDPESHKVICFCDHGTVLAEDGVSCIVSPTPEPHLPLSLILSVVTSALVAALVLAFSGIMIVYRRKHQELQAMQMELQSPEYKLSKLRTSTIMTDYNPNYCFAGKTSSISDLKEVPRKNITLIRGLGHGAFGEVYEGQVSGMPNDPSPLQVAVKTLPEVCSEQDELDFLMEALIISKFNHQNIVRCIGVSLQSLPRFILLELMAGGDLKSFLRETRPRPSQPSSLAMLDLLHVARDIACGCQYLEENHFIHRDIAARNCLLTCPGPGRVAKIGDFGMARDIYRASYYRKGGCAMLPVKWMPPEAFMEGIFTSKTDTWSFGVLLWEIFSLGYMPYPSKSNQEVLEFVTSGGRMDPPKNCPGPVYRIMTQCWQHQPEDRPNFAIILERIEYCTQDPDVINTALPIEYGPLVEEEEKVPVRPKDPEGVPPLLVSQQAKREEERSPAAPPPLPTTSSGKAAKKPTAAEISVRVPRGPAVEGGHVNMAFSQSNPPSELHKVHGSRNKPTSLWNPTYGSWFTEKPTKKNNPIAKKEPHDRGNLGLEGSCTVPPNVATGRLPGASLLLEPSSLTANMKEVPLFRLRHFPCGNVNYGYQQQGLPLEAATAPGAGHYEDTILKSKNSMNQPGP
From the text: as §1

[7] = target: 363 human kinases (including Aurora A/B/C) (Homo sapiens, UniProt P54756); conditions: EPHA5, [ATP] 30 µM; for remaining activity at 0.1 µM: 100 nM; for remaining activity at 0.1 µM / remaining activity at 0.5 µM: read-out: % Enzyme Activity (relative to DMSO controls)
From the text: as §1

[8] = target: T4, 363 human kinases (including Aurora A/B/C) (Homo sapiens, UniProt Q16566); conditions: CAMK4, [ATP] 10 µM; for remaining activity at 0.1 µM: 100 nM; for remaining activity at 0.1 µM / remaining activity at 0.5 µM: read-out: % Enzyme Activity (relative to DMSO controls)
T4 sequence (Q16566 1-473): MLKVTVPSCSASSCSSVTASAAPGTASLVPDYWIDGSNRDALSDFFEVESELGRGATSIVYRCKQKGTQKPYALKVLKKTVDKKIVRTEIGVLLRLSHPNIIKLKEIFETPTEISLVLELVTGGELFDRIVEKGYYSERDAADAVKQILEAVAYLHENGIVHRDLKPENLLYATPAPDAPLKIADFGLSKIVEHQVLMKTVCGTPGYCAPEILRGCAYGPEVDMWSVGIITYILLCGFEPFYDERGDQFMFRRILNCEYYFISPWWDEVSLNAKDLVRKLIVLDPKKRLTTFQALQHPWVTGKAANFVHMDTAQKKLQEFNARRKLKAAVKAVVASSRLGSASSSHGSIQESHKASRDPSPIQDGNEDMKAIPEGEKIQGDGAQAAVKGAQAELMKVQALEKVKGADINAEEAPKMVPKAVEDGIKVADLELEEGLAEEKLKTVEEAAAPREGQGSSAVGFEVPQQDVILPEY
From the text: as §1

[9] = target: 363 human kinases (including Aurora A/B/C) (Homo sapiens, UniProt O95819); conditions: HGK/MAP4K4; for remaining activity at 0.1 µM: 100 nM; for remaining activity at 0.1 µM / remaining activity at 0.5 µM: read-out: % Enzyme Activity (relative to DMSO controls)
From the text: as §1

[10] = target: 363 human kinases (including Aurora A/B/C) (Homo sapiens, UniProt Q02763); conditions: TIE2/TEK; for remaining activity at 0.1 µM: 100 nM; for remaining activity at 0.1 µM / remaining activity at 0.5 µM: read-out: % Enzyme Activity (relative to DMSO controls)
Chain of 363 human kinases (including Aurora A/B/C) (Homo sapiens, UniProt Q02763) (Q02763 23-1124): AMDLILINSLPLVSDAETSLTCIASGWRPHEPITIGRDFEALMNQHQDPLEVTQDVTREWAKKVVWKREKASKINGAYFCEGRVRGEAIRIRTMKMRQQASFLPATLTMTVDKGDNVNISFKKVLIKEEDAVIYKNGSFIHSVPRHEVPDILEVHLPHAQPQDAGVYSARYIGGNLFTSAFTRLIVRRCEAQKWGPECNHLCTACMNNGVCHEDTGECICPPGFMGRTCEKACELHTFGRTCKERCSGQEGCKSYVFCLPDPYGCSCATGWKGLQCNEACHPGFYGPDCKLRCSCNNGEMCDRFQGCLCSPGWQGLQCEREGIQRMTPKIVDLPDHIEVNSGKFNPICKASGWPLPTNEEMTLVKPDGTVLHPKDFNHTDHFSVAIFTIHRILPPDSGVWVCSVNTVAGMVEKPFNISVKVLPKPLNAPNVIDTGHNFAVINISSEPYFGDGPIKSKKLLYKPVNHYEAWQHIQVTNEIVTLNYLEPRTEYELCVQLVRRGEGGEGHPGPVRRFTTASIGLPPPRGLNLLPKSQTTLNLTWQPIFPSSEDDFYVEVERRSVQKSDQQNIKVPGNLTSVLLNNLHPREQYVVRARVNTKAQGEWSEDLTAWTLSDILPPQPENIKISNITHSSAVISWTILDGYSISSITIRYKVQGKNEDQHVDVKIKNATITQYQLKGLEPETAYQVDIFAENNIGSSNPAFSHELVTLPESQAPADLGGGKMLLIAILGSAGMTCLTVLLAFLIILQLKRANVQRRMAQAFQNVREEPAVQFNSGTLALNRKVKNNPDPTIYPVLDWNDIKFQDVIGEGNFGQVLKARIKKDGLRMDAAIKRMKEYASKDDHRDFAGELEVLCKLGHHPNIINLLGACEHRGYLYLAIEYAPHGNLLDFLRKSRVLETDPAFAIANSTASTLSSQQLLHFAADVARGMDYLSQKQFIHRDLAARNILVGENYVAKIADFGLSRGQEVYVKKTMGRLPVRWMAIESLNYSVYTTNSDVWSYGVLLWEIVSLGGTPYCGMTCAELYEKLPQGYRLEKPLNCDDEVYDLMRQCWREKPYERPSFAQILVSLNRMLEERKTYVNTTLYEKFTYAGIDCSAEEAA
From the text: as §1

Chain of 363 human kinases (including Aurora A/B/C) (Homo sapiens, UniProt Q14012) (Q14012 whole entry): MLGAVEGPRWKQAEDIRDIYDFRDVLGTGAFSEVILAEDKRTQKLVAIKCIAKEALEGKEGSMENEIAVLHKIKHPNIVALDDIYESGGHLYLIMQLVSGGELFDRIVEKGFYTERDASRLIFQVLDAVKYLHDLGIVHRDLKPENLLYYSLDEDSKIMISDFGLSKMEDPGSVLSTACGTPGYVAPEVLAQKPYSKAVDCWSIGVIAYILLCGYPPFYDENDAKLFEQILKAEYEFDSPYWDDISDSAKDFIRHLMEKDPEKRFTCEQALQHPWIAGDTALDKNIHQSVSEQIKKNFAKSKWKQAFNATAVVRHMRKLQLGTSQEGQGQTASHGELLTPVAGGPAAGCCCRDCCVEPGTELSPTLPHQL

| Structure (SMILES) | remaining activity at 0.1 µM [1] [%] | remaining activity at 0.1 µM [2] [%] | remaining activity at 0.1 µM [3] [%] | remaining activity at 0.1 µM [4] [%] | remaining activity at 0.1 µM [5] [%] | remaining activity at 0.1 µM [6] [%] | remaining activity at 0.1 µM [7] [%] | remaining activity at 0.1 µM [8] [%] | remaining activity at 0.1 µM [9] [%] | remaining activity at 0.1 µM [10] [%] | remaining activity at 0.5 µM ([1]; 500 nM) [%] | remaining activity at 0.5 µM ([2]; 500 nM) [%] | remaining activity at 0.5 µM ([3]; 500 nM) [%] | remaining activity at 0.5 µM ([4]; 500 nM) [%] | remaining activity at 0.5 µM ([5]; 500 nM) [%] | remaining activity at 0.5 µM ([6]; 500 nM) [%] | remaining activity at 0.5 µM ([7]; 500 nM) [%] | remaining activity at 0.5 µM ([8]; 500 nM) [%] | remaining activity at 0.5 µM ([9]; 500 nM) [%] | remaining activity at 0.5 µM ([10]; 500 nM) [%] | also measured |
| --- | --- | --- | --- | --- | --- | --- | --- | --- | --- | --- | --- | --- | --- | --- | --- | --- | --- | --- | --- | --- | --- |
| CCn1cc(-c2ccnc3[nH]c(-c4cccc(CN(C)C)c4)cc23)c(-c2ccc(NC(=O)N(C)C)cc2)n1 [GSK1070916] | 98.6 | 90.7 | 118 | 57.3 | 94.9 | 98.4 | 101 | 98.5 | 87.5 | 39.1 |  |  |  |  |  |  |  |  |  |  |  |
| O=C(O)[C@]1(Cc2cccc(Nc3nccs3)n2)CC[C@@H](Oc2cccc(Cl)c2F)CC1 [MK-5108] | 102 | 22.9 | 104 | 49.5 | 96.4 | 67 | 48.6 | 93.4 | 95.5 | 37.9 | 97.1 | 6.3 | 113 | 14.8 | 94.4 | 30.9 | 24.4 | 99.8 | 72.9 | 9.27 |  |
| O=C(c1cccc(Cl)c1F)N1CCN(Cc2cccc(Nc3nccs3)n2)CC1 [MK-8745] |  |  |  |  |  |  |  |  |  |  | 95.5 | 77.7 | 104 | 81.3 | 96 | 81 | 84.2 | 102 | 89.1 | 98.2 | % Enzyme Activity (relative to DMSO controls) ([1]; 500 nM): 94.06%; % Enzyme Activity (relative to DMSO controls) ([2]; 500 nM): 75.54%; % Enzyme Activity (relative to DMSO controls) ([3]; 500 nM): 103.73%; % Enzyme Activity (relative to DMSO controls) ([4]; 500 nM): 77.61%; % Enzyme Activity (relative to DMSO controls) ([5]; 500 nM): 95.99%; % Enzyme Activity (relative to DMSO controls) ([6]; 500 nM): 78.97%; % Enzyme Activity (relative to DMSO controls) ([7]; 500 nM): 84.08%; % Enzyme Activity (relative to DMSO controls) ([8]; 500 nM): 101.38%; % Enzyme Activity (relative to DMSO controls) ([9]; 500 nM): 88.10%; % Enzyme Activity (relative to DMSO controls) ([10]; 500 nM): 96.47% |
